# In PubChem BioAssay (NCI):
#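 In this assay, cells in 96-well plates receive the compound at five concentrations for 48 hours. Endpoints are linearly interpolated between the surrounding concentrations. Abbreviation: GI50, concentration required for 50% inhibition of growth. TGI: concentration producing complete growth inhibition.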
# Legend:
# Test in all cases: DTP human tumour cell line panel, 48 h
# [1] = test system: BT-549 breast
# [2] = test system: MDA-MB-231 breast
# [3] = test system: HS 578T breast
# [4] = test system: DMS 273 small cell lung
# [5] = test system: M19-MEL melanoma
# [6] = test system: LXFL 529 NSCLC
# [7] = test system: SNB-78 CNS
# [8] = test system: XF 498 CNS
# [9] = test system: DMS 114 small cell lung
# [10] = test system: HOP-18 NSCLC
SMILES,TGI [1] [µM],TGI [2] [µM],TGI [3] [µM],TGI [5] [µM],TGI [6] [µM],TGI [7] [µM],further results
CC(=O)Oc1ccc2c(c1)CC[C@@H]1C2CC[C@]2(C)C(=O)NC(=O)CC12 (stereo not given in full),> 100,> 100,> 100,–,–,–,–
Nc1[nH]c(=O)ncc1CO,> 100,> 100,> 100,–,–,–,GI50 [1]: > 100000 nM; GI50 [2]: > 100 µM; GI50 [3]: > 100 µM
COc1cc2c(c(OC)c1OC)-c1ccc(SC)c(=O)cc1[C@@H](NC(=O)c1ccc(Cl)cc1)CC2,–,–,–,> 100,0.169,–,TGI [4]: > 100 µM
Cc1nc(N)nc2ccccc12,> 100,> 100,> 100,–,–,–,–
O=c1c2ccccc2oc2ccc(OCCCCCCN3CCCCCC3)cc12,5.3,13,36.7,–,–,–,GI50 [1]: 1700 nM; GI50 [2]: 4.19 µM; GI50 [3]: 7.5 µM
COC(=O)/C(=N\NC(N)=S)C(C#N)c1ccccc1 (stereo not given),–,–,–,> 100,> 100,> 100,TGI [8]: > 100 µM; TGI [9]: > 100 µM
Cc1cc(Cl)ccc1Nc1nc(C(F)(F)F)ccc1C(=O)N1CCN(c2cccc(Cl)c2)CC1,> 100,> 100,> 100,–,–,–,GI50 [1]: > 100000 nM; GI50 [2]: 11 µM; GI50 [3]: 3.89 µM
CC1=NN(C(=O)c2ccccc2O)C(=O)/C1=C/c1cccc([N+](=O)[O-])c1,–,> 100,–,–,> 100,> 100,TGI [9]: 21.4 µM
COc1ccc(S(=O)(=O)N(C)CC(=O)O)cc1,–,–,–,> 100,> 100,–,TGI [4]: > 100 µM; TGI [10]: > 100 µM; TGI [8]: > 100 µM
CC(=O)OC1CC2C(=O)C(=O)C1(C)C2(C)C (stereo not given),> 100,> 100,–,–,–,–,–
N[C@@H]1CCCC[C@@H]1N.O=P([O-])([O-])CN(CP(=O)([O-])[O-])CP(=O)([O-])[O-].[Pt+2],–,–,–,> 100,> 100,> 100,GI50 [4]: > 100 µM; TGI [4]: > 100 µM; GI50 [7]: > 100 µM; GI50 [10]: > 100 µM; TGI [10]: > 100 µM; GI50 [5]: > 100 µM; GI50 [8]: > 100 µM; TGI [8]: > 100 µM; GI50 [6]: > 100 µM
C=[CH][Sn]([CH]=C)([O]c1cccc2cccnc12)[O]c1cccc2cccnc12,31.5,36.9,–,–,–,–,GI50 [1]: 2780 nM; GI50 [2]: 11.9 µM
CC(=O)Oc1ccc(/C=N/NC(N)=S)nc1,68.9,> 100,–,–,–,–,GI50 [1]: 3400 nM; GI50 [2]: 11.2 µM
CCC1CNC(=O)CC1CC(=O)OC (stereo not given),–,–,–,–,–,> 100,TGI [9]: > 100 µM
COc1cccc(NC(=O)C(=O)C(C(C)=O)c2nc3ccc(Cl)cc3[nH]c2=O)c1 (stereo not given),–,–,–,> 100,> 100,> 100,TGI [4]: > 100 µM; TGI [10]: > 100 µM; TGI [9]: > 100 µM
CC1CCC2N(C1)CC1C3(O)CC45OC6(O)C(O)CCC4(C)C6CCC5C3(O)CC(O)C1(O)C2(C)O (stereo not given),> 100,> 100,> 100,–,–,–,–
Cc1c(C(=O)CSc2nc3ccccc3[nH]2)c(=O)n(-c2ccccc2)n1C,–,–,–,> 100,> 100,> 100,TGI [4]: > 100 µM; TGI [8]: > 100 µM

SMILES,TGI [1] [µM],TGI [2] [µM],TGI [3] [µM],TGI [5] [µM],TGI [6] [µM],TGI [7] [µM],further results
CN(C=O)/C=C/c1cc(O)ccc1O,–,–,–,44.9,33.6,56.2,TGI [4]: > 54.3 µM; TGI [10]: 31.4 µM; TGI [9]: > 100 µM
CO[C@@]12[C@@H]3NC3CN1C1=C(C(=O)C(N)=C(C)C1=O)[C@@H]2COC(N)=O (stereo not given in full),6.74,> 54.8,> 100,–,–,–,GI50 [1]: 1300 nM; GI50 [2]: 8.95 µM; GI50 [3]: 6.32 µM
OCNCCNc1nc2ccccc2c2[nH]c3ccccc3c12,3.48,3.77,3.87,–,–,–,GI50 [1]: 1150 nM; GI50 [2]: 1.24 µM; GI50 [3]: 1.46 µM
CCOC(=O)[C@H]1Nc2ccccc2C2c3ccccc3CC21 (stereo not given in full),–,–,–,> 100,> 100,> 100,TGI [4]: > 100 µM; TGI [8]: > 100 µM; TGI [9]: > 100 µM
CC1OC(OC2CCC3(C=O)C4CCC5(C)C(C6=CC(=O)OC6)CCC5(O)C4CCC3(O)C2)C(O)C(O)C1O (stereo not given),4.44e-05,0.0025,> 100,–,–,–,–
COc1cccc(/C=C/C(=O)c2cc3c(N)c(C(=O)Nc4cccc5ccccc45)sc3nc2C)c1,3.88,3.26,–,–,–,–,GI50 [1]: 1200 nM; GI50 [2]: 1.22 µM
O=S(=O)(c1ccc(O)c(C=Nc2ccc(Cl)cc2)c1)c1ccc(O)c(C=Nc2ccc(Cl)cc2)c1,–,–,–,> 100,> 100,–,TGI [4]: > 100 µM; TGI [10]: > 100 µM; TGI [9]: > 100 µM
CCN(CC)CCN(C(=O)C(C)(C)C)c1ccccc1N,> 100,–,–,–,–,–,–
O=C(Cc1csc2nc(-c3ccc(Br)cc3)cn12)N/N=C/c1ccc(O)cc1,56.5,43.2,92.3,–,–,–,GI50 [1]: 13400 nM; GI50 [2]: 10.4 µM; GI50 [3]: 23.7 µM
CN1CCc2c1nc(-c1ccc([N+](=O)[O-])cc1)c1c2N(C)CC1,–,–,–,> 100,> 100,> 100,TGI [10]: > 100 µM; TGI [8]: > 100 µM; TGI [9]: > 100 µM
N=C1C=C(N)C(=O)c2[nH]c(=O)ccc21,–,3.46,> 100,–,–,–,–
C/C=C1\C(=O)OC2CCN3CCC(COC(=O)C(C)(O)C(C)C1O)C23 (stereo not given),> 100,> 100,> 100,–,–,–,–
CNC(=O)CN(CC(N)=O)C(N)=O,–,–,–,> 100,> 100,> 100,TGI [4]: > 100 µM; TGI [8]: > 100 µM
O=C1C=CC2(C=C1)C[C@H](NC(=O)C(F)(F)F)C(=O)O2,–,–,–,63.8,69.1,> 100,TGI [9]: > 100 µM
COc1nc(NC2OC(COC(C)=O)C(OC(C)=O)C(OC(C)=O)C2OC(C)=O)c(-c2csc(N)n2)c(=O)n1C (stereo not given),–,–,–,> 100,> 100,> 100,TGI [10]: > 100 µM; TGI [9]: > 100 µM
O=C(Nc1ccccc1C(=O)N/N=C(\c1ccccc1)c1ccccn1)c1ccc(F)cc1,> 26.7,> 100,> 100,–,–,–,GI50 [1]: 436 nM; GI50 [2]: 0.705 µM; GI50 [3]: 6.48 µM
O=C1CN(/N=C/c2ccc(-c3ccc(F)cc3)o2)C(=O)N1,–,> 100,> 100,–,–,–,–
